Laboratory results from patent publication US20260091026A1, “METHODS OF TREATING INFLAMMATORY DISEASES” (INTERLINE THERAPEUTICS, INC., priority 2023, published 2026).

What was measured:
RIPK2 (KD)/XIAP (BIR2) = molecular target: T1, RIPK2 (KD)/XIAP (BIR2) (Homo sapiens, UniProt O43353); experiment: RIPK2-XIAP binding competition PPI assay (TR-FRET); settings: for Emax: 50 nM of GSK583 = -100% activity, read-out: PPI Amax; for IC50: GST-RIPK2 / His-XIAP (BIR2)-avi, 120 min at 23° C.
T1 construct: made in house; host or cells: baculovirus-infected Sf9 cells
In short: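 After 2 h at 23 °C, complex formation was read as the 665/520 nm emission ratio (337 nm excitation), scaled between uninhibited reaction and 50 nM GSK583. The mix held 1 nM human RIPK2 kinase fragment-GST, 25 nM His-tagged XIAP BIR2 and Tb/XL665 antibodies in pH 7.5 Tris buffer containing vanadate and glycerophosphate.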

[1] = molecular target: T2, GST-RIPK2 fusion protein (human RIPK2 amino acids 1-310) (Homo sapiens, UniProt O43353); experiment: RIPK2 binding competition assay (TR-FRET, Tracer 199); settings: displacement of Tracer 199 (10 nM), 45 min at 22° C.
T2 construct: made in house; host or cells: baculovirus-infected Sf9 cells
Description: The ability of selected compounds of Formulas (I) and (II) to inhibit the binding of an Alexa647-labelled ATP-competitive kinase inhibitor to a GST-RIPK2 fusion protein was quantified employing the TR-FRET-based RIPK2 binding competition assay as described in the following paragraphs.
Recombinant fusion protein of N-terminal Glutathione-S-Transferase (GST) and a fragment of human RIPK2 (amino acids 1-310 of accession number 043353), expressed in baculovirus infected Sf9 cells, purified via glutathione affinity chromatography, was used as GST-RIPK2 fusion protein. Tracer 199 from Life Technologies (catalogue no. PR9115B) was used as Alexa647-labelled ATP-competitive kinase inhibitor.
For the assay, 50 nL of a 100-fold concentrated solution of each test compound in DMSO was pipetted into either a black low volume 384-well microtiter plate or a black 1536-well microtiter plate (both Greiner Bio-One, Frickenhausen, Germany), 3 μL solution of Tracer 199 (16.7 nM=>final concentration in 5 μL assay volume is 10 nM) in aqueous assay buffer (25 mM Tris/HCl pH 7.5, 10 mM magnesium chloride (MgCl2), 5 mM β-glycerophosphate, 2.5 mM dithiothreitol (DTT), 0.5 mM ethylene glycol-bis(2-aminoethylether)-N,N,N′,N′-tetraacetic acid (EGTA), 0.5 mM sodium ortho-vanadate, 0.01% (w/v) bovine serum albumin (BSA), 0.005% (w/v) Pluronic F-127 (Sigma)) were added. Then the binding competition was started by the addition of 2 μL of a solution of the GST-RIPK2 fusion protein (2.5 nM=>final conc. in the 5 μL assay volume is 1 nM) and of Anti-GST-Tb (1.25 nM=>final conc. in the 5 μL assay volume is 0.5 nM), a Lumi4®—Tb cryptate-conjugated anti-GST antibody from PerkinElmer (catalogue no 61GSTTAH), in assay buffer.
The resulting mixture was incubated 45 min at 22° C. to allow the formation of a complex between the Tracer 199, the fusion protein and Anti-GST-Tb. Subsequently, the amount of this complex was evaluated by measurement of the resonance energy transfer from the Tb-cryptate to the Tracer 199. Therefore, the fluorescence emissions at 620 nm and 665 nm after excitation at 337 nm were measured in a TR-FRET reader, e.g. a Pherastar FS(BMG Labtechnologies, Offenburg, Germany) or a Viewlux (PerkinElmer). The ratio of the emissions at 665 nm and at 620 nm was taken as the measure of the amount of the complex. The data were normalized (assay reaction without inhibitor=0% activity, all other assay components but no GST-RIPK2 fusion protein=−100% activity).

[2] = tested on: THP1-Dual cells, NF-κB pathway (SEAP); experiment: THP-1 Dual cell SEAP assay (L18-MDP stimulated); type: cell-based; settings: Homo sapiens, 10 ng/mL L18-MDP, 20-24 h, SEAP readout, read-out: IFNγ THP1 IC50
In short: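 IC50 values come from non-linear fits of % inhibition of SEAP, measured as QUANTI-Blue optical density (620-655 nm, 2 h) in media-blanked supernatants. These were taken from THP1-Dual cells treated with compound for 30 min before overnight exposure to 10 ng/mL L18-MDP final at 37 °C.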

T2 sequence (O43353 1-310): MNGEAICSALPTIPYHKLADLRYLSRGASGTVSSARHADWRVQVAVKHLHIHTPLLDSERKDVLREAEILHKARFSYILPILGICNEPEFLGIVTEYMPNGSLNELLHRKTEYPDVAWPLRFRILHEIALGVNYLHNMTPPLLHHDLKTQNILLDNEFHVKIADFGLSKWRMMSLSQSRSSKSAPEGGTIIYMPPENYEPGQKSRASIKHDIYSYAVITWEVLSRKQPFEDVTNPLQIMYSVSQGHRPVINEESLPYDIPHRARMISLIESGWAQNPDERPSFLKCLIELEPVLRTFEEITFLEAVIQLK
T1 sequence (O43353 1-310): as above

Row | SMILES | Emax (RIPK2 (KD)/XIAP (BIR2)) [%] | IC50 (RIPK2 (KD)/XIAP (BIR2)) [nM] | IC50 [1] [nM] | IC50 [2] [nM]
1 | COc1cc2ncc(-n3cc(NC(=O)Cc4ccc(F)cc4Cl)cn3)n2cc1S(=O)(=O)C(C)(C)C [Example 158, N-(1-(6-(tert-butylsulfonyl)-7-methoxyimidazo[1,2-a]pyridin-3-yl)-1H-pyrazol-4-yl)-2-(2-chloro-4-fluorophenyl)acetamide] | ≥ 80 | > 1000 | 500 to 1000 | > 2500
2 | COc1cc2ncc(-n3cc(NC(=O)Cc4c(F)cccc4Cl)cn3)n2cc1S(=O)(=O)C(C)(C)C [Example 159, N-(1-(6-(tert-butylsulfonyl)-7-methoxyimidazo[1,2-a]pyridin-3-yl)-1H-pyrazol-4-yl)-2-(2-chloro-6-fluorophenyl)acetamide] | ≥ 80 | 100 to 1000 | < 200 | 500 to 2500
3 | COc1cc2ncc(-n3cc(NC(=O)Cc4ccccc4)cn3)n2cc1S(=O)(=O)C(C)(C)C [Example 160, N-(1-(6-(tert-butylsulfonyl)-7-methoxyimidazo[1,2-a]pyridin-3-yl)-1H-pyrazol-4-yl)-2-phenylacetamide] | ≥ 80 | 100 to 1000 | 200 to 500 | > 2500
4 | COc1cc2ncc(-n3cc(NC(=O)[C@H](C)c4ccccc4)cn3)n2cc1S(=O)(=O)C(C)(C)C [Example 161, (R)-N-(1-(6-(tert-butylsulfonyl)-7-methoxyimidazo[1,2-a]pyridin-3-yl)-1H-pyrazol-4-yl)-2-phenylpropanamide] | ≥ 80 | 100 to 1000 | 200 to 500 | > 2500
5 | COc1cc2ncc(-n3cc(NC(=O)[C@@H](C)c4ccccc4)cn3)n2cc1S(=O)(=O)C(C)(C)C [Example 162, (S)-N-(1-(6-(tert-butylsulfonyl)-7-methoxyimidazo[1,2-a]pyridin-3-yl)-1H-pyrazol-4-yl)-2-phenylpropanamide] | ≥ 80 | > 1000 | 500 to 1000 | > 2500
6 | COc1cc2ncc(-n3cc(NC(=O)C4CC4)cn3)n2cc1S(=O)(=O)C(C)(C)C [Example 163, N-(1-(6-(tert-butylsulfonyl)-7-methoxyimidazo[1,2-a]pyridin-3-yl)-1H-pyrazol-4-yl)cyclopropanecarboxamide] | ≤ 30 | > 1000 | > 1000 | > 2500
7 | COc1cc2ncc(-n3cc(NC(=O)C4CCCCC4)cn3)n2cc1S(=O)(=O)C(C)(C)C [Example 164, N-(1-(6-(tert-butylsulfonyl)-7-methoxyimidazo[1,2-a]pyridin-3-yl)-1H-pyrazol-4-yl)cyclohexanecarboxamide] | ≥ 80 | > 1000 | > 1000 | > 2500
8 | COc1cc2ncc(-n3cc(NC(=O)C4CCC(F)(F)CC4)cn3)n2cc1S(=O)(=O)C(C)(C)C [Example 165, N-(1-(6-(tert-butylsulfonyl)-7-methoxyimidazo[1,2-a]pyridin-3-yl)-1H-pyrazol-4-yl)-4,4-difluorocyclohexane-1-carboxamide] | 55 to 80 | > 1000 | > 1000 | > 2500
9 | COc1cc2ncc(-n3cc(NC(=O)[C@@H](c4ccccc4)N(C)C)cn3)n2cc1S(=O)(=O)C(C)(C)C [Example 166, (R)-N-(1-(6-(tert-butylsulfonyl)-7-methoxyimidazo[1,2-a]pyridin-3-yl)-1H-pyrazol-4-yl)-2-(dimethylamino)-2-phenylacetamide] | ≥ 80 | > 1000 | > 1000 | > 2500
10 | COc1cc2ncc(-n3cc(NC(=O)CC4CCCCC4)cn3)n2cc1S(=O)(=O)C(C)(C)C [Example 167, N-(1-(6-(tert-butylsulfonyl)-7-methoxyimidazo[1,2-a]pyridin-3-yl)-1H-pyrazol-4-yl)-2-cyclohexylacetamide] | ≥ 80 | > 1000 | > 1000 | > 2500
11 | COc1cc2ncc(-n3cc(NC(=O)[C@@H]4C[C@H]4c4ccccc4)cn3)n2cc1S(=O)(=O)C(C)(C)C [Example 168, (1R,2R)-N-(1-(6-(tert-butylsulfonyl)-7-methoxyimidazo[1,2-a]pyridin-3-yl)-1H-pyrazol-4-yl)-2-phenylcyclopropane-1-carboxamide] | ≥ 80 | > 1000 | > 1000 | > 2500
12 | COc1cc2ncc(-n3cc(NC(=O)C4(F)CCCCC4)cn3)n2cc1S(=O)(=O)C(C)(C)C [Example 169, N-(1-(6-(tert-butylsulfonyl)-7-methoxyimidazo[1,2-a]pyridin-3-yl)-1H-pyrazol-4-yl)-1-fluorocyclohexane-1-carboxamide] | ≥ 80 | > 1000 | 200 to 500 | > 2500
13 | COc1cc2ncc(-n3cc(NC(=O)c4ccccc4)cn3)n2cc1S(=O)(=O)C(C)(C)C [Example 170, N-(1-(6-(tert-butylsulfonyl)-7-methoxyimidazo[1,2-a]pyridin-3-yl)-1H-pyrazol-4-yl)benzamide] | 55 to 80 | > 1000 | > 1000 | > 2500
14 | COc1cc2ncc(-n3cc(NC(=O)[C@H]4C[C@H]4c4ccccc4)cn3)n2cc1S(=O)(=O)C(C)(C)C [Example 171, (1S,2R)-N-(1-(6-(tert-butylsulfonyl)-7-methoxyimidazo[1,2-a]pyridin-3-yl)-1H-pyrazol-4-yl)-2-phenylcyclopropane-1-carboxamide] | ≥ 80 | 100 to 1000 | < 200 | 500 to 2500
15 | COc1cc2ncc(-n3cc(NC(=O)[C@H]4CC[C@@H](O)CC4)cn3)n2cc1S(=O)(=O)C(C)(C)C [Example 172, (1s,4s)-N-(1-(6-(tert-butylsulfonyl)-7-methoxyimidazo[1,2-a]pyridin-3-yl)-1H-pyrazol-4-yl)-4-hydroxycyclohexane-1-carboxamide] | 30 to 55 | > 1000 | > 1000 | > 2500
16 | COc1cc2ncc(-n3cc(N(C)C(=O)Cc4ccccc4Cl)cn3)n2cc1S(=O)(=O)C(C)(C)C [Example 173, N-(1-(6-(tert-butylsulfonyl)-7-methoxyimidazo[1,2-a]pyridin-3-yl)-1H-pyrazol-4-yl)-2-(2-chlorophenyl)-N-methylacetamide] | ≥ 80 | > 1000 | > 1000 | > 2500
17 | COc1cc2ncc(-n3cc(NC(=O)C4(F)CCC5(CC5)CC4)cn3)n2cc1S(=O)(=O)C(C)(C)C [Example 174, N-(1-(6-(tert-butylsulfonyl)-7-methoxyimidazo[1,2-a]pyridin-3-yl)-1H-pyrazol-4-yl)-6-fluorospiro[2.5]octane-6-carboxamide] | ≥ 80 | > 1000 | 500 to 1000 | > 2500
18 | COc1cc2ncc(-n3cc(NC(=O)C4(C)CCCCC4)cn3)n2cc1S(=O)(=O)C(C)(C)C [Example 175, N-(1-(6-(tert-butylsulfonyl)-7-methoxyimidazo[1,2-a]pyridin-3-yl)-1H-pyrazol-4-yl)-1-methylcyclohexane-1-carboxamide] | 55 to 80 | > 1000 | > 1000 | > 2500
